Assay results as given in US20240382518A1, “PHARMACEUTICAL COMPOSITION AND HEALTH FUNCTIONAL FOOD FOR PREVENTION OR TREATMENT OF OSTEOARTHRITIS” (SEOUL NATIONAL UNIVERSITY R&DB FOUNDATION, priority 2021, published 2024).

Legend:
[1] = system: SEPHS1-iCKO mice; assay: post-traumatic osteoarthritis (DMM surgery) in SEPHS1-iCKO mice with NAC or selenate in drinking water; type: in vivo, mouse; conditions: for osteoarthritis phenotype of SEPHS1-iCKO mice: drinking water with NAC 1 mg/mL or sodium selenate 1 ppm, from 5 days prior to DMM
Experimental: Selenate supplementation or NAC treatment was performed by supplying mice with drinking water in which sodium selenate (1 ppm) or NAC (1 mg/mL) was dissolved. Further, to Sephs1-iCKO mice, NAC, selenate or vehicle was supplemented 5 days prior to DMM surgery.
Posttraumatic osteoarthritis (OA) was induced by executing DMM surgery in 12-week-old (WT C57BL/6) or 13-week-old (SEPHS1^fl/fl or SEPHS1^fl/fl; Col2a1-CreER^T2) mice, and mice (sham) without DMM after incision were used as a control. These mice were sacrificed 6 or 8 weeks after DMM or sham surgery.
As an aging-associated OA model, 24-month-old C57BL/6 male mice were used for histological analysis and 3-month-old mice were used as a control. The extent of cartilage degeneration in the knee joint was assessed by safranin-O staining and scored using the OARSI grading system.

[2] = system: SEPHS1 knockout mouse-derived chondrocytes; assay: senescence-associated β-galactosidase (SA-β-gal) activity in SEPHS1 knockout mouse-derived chondrocytes; type: cell-based; conditions: after NAC treatment
Experimental: (§1) For primary culture of mouse articular chondrocytes, cells derived from femoral condyle and tibial plateaus of 5-day-old ICR mice were isolated. Chondrocytes were cultured in DMEM medium containing 10% FBS (Gibco), 100 units/mL of penicillin, and 100 μg/mL of streptomycin. After 2 days, cells were treated according to the purpose of each experiment. The cultured cells were maintained at 37° C. under 5% CO2 and 3% O2 conditions. In addition, DNA damage and senescence-associated β-galactosidase (SA-β-gal) activity were measured to determine the relationship between SEPHS1 deficiency and cellular senescence. […] In order to determine whether the DNA damage and the increase in SA-β-gal activity caused by SEPHS1 inhibition were caused by the accumulation of ROS, SEPHS1 knockout mouse-derived chondrocytes were additionally treated with N-acetylcysteine (NAC), followed by repeatedly performing the same experiment. As a result, it was confirmed that DNA damage caused by SEPHS1 inhibition and the increase in SA-β-gal activity were reduced after NAC treatment (FIGS. 3P to 3S).

[3] = system: SEPHS1 knockout mouse-derived chondrocytes; assay: DNA damage (γ-H2AX foci) in SEPHS1 knockout mouse-derived chondrocytes; type: cell-based; conditions: after NAC treatment
Experimental: as §1

increase in SA-β-gal activity [2] | Compound | weight imbalance between the operated legs and the other legs without operation ([1]; SEPHS1-iCKO mice, NAC 1 mg/mL in drinking water) | osteoarthritis phenotype of SEPHS1-iCKO mice [1] | DNA damage caused by SEPHS1 inhibition [3]
reduced | CC(=O)N[C@@H](CS)C(=O)O [NAC, N-acetylcysteine] | alleviated | alleviated | reduced
– | O=[Se](=O)([O-])[O-].[Na+].[Na+] [selenate, sodium selenate] | – | did not restore | –
